Laboratory results from patent US20260297080A1, “BICYCLIC COMPOUNDS AS CDK INHIBITORS” (BeOne Medicines I GmbH, priority 2022, published 2026).

Legend:
CDK2/Cyclin E1 = CDK2/Cyclin E1 (Homo sapiens, UniProt P24941); assay: CDK2/Cyclin E1 Biochemical Assay (TR-FRET), 0.060 mM ATP; conditions: 0.15 μM Rb (Ser780)-biotin substrate, pH7.0, 60 min preincubation, 120 min reaction, room temperature
Method in brief: (§1)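 Phosphorylation of a biotin-tagged Rb Ser780 peptide (0.15 μM) is measured by time-resolved FRET between a europium-labelled phospho-specific antibody and streptavidin-XL665. Compound (0–10 μM) sits with enzyme 60 min first; the kinase reaction then proceeds 120 min at room temperature, pH 7.0.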

CDK1/Cyclin B1 = CDK1/Cyclin B1 (Homo sapiens, UniProt P06493); assay: CDK1/Cyclin B1 Biochemical Assay (TR-FRET), 0.015 mM ATP; conditions: 0.15 μM Rb (Ser780)-biotin substrate, pH7.0, 60 min preincubation, 120 min reaction, room temperature
CDK1/Cyclin B1, sequence (P06493 whole entry): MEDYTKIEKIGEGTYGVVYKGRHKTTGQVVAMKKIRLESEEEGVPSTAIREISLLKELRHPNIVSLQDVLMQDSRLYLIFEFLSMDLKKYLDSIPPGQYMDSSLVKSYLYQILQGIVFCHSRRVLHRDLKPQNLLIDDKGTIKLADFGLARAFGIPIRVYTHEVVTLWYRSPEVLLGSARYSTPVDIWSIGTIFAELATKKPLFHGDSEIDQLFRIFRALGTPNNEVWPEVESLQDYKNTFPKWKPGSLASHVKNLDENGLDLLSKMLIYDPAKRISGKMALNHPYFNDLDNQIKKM
CDK1/Cyclin B1, sequence (P14635 whole entry partner): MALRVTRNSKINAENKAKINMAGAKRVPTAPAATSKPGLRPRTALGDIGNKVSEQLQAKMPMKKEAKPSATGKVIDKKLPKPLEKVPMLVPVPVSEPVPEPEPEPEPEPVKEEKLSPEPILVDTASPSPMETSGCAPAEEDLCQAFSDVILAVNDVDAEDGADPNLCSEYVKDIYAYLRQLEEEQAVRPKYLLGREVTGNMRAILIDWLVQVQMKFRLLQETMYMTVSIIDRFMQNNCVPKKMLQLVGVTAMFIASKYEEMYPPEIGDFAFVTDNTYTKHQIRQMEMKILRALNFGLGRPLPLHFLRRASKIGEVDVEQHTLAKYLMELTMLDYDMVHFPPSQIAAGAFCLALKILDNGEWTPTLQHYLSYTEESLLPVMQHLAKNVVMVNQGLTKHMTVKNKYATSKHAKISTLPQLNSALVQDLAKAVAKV
Method in brief: as §1

IC50 (CDK2/Cyclin E1) [nM] | IC50 (CDK1/Cyclin B1) [nM] | SMILES
5.4 | 364 | CC(C)NC(=O)O[C@H]1CC[C@@H](c2cc(Nc3ccc4c(c3F)CS(=O)(=O)N4C3COC3)n[nH]2)C1 (single isomer, unassigned) [Example 259a, cis-3-(3-((4-fluoro-1-(oxetan-3-yl)-2,2-dioxido-1,3-dihydrobenzo[c]isothiazol-5-yl)amino)-1H-pyrazol-5-yl)cyclopentyl isopropylcarbamate]
31 | 482 | CC(C)NC(=O)O[C@H]1CC[C@@H](c2cc(Nc3ccc4c(c3)C(F)(F)S(=O)(=O)N4C)n[nH]2)C1 (relative stereo) [Example 346, cis-3-(3-((3,3-difluoro-1-methyl-2,2-dioxido-1,3-dihydrobenzo[c]isothiazol-5-yl)amino)-1H-pyrazol-5-yl)cyclopentyl isopropylcarbamate]
4.8 | 255 | CC(C)NC(=O)O[C@H]1CC[C@@H](c2cc(Nc3ccc4c(c3F)S(=O)(=O)NC4)n[nH]2)C1 (single isomer, unassigned) [Example 186a, cis-3-(3-((7-fluoro-1,1-dioxido-2,3-dihydrobenzo[d]isothiazol-6-yl)amino)-1H-pyrazol-5-yl)cyclopentyl isopropylcarbamate]
1.3 | 119 | CC[C@H](C)NC(=O)O[C@H]1CC[C@@H](c2cc(Nc3ccc4c(c3F)CS(=O)(=O)N4C3COC3)n[nH]2)C1 (single isomer, unassigned) [Example 261a]
3.4 | 64 | O=C(NC1CCCC1)O[C@H]1CC[C@@H](c2cc(Nc3ccc4c(c3F)CS(=O)(=O)N4)n[nH]2)C1 (single isomer, unassigned) [Example 400b]
3.8 | 350 | CC(C)NC(=O)O[C@H]1CC[C@@H](c2cc(Nc3ccc4c(c3F)CN(C3CCC3O)S4(=O)=O)n[nH]2)C1 (single isomer, unassigned) [Example 103, cis-3-(3-((4-fluoro-2-(2-hydroxycyclobutyl)-1,1-dioxido-2,3-dihydrobenzo[d]isothiazol-5-yl)amino)-1H-pyrazol-5-yl)cyclopentyl isopropylcarbamate]
6.5 | 332 | COCC(C)NC(=O)O[C@H]1CC[C@@H](c2cc(Nc3ccc4c(c3F)CNS4(=O)=O)n[nH]2)C1 (relative stereo) [Example 161, cis-3-(3-((4-fluoro-1,1-dioxido-2,3-dihydrobenzo[d]isothiazol-5-yl)amino)-1H-pyrazol-5-yl)cyclopentyl(1-methoxypropan-2-yl)carbamate]
13 | 279 | CC(C)NC(=O)O[C@H]1CC[C@@H](c2cc(Nc3ccc4c(c3Cl)CNS4(=O)=O)n[nH]2)C1 (single isomer, unassigned) [Example 38b, cis-3-(3-((4-chloro-1,1-dioxido-2,3-dihydrobenzo[d]isothiazol-5-yl)amino)-1H-pyrazol-5-yl)cyclopentyl isopropylcarbamate]
8.4 | 689 | CC(C)NC(=O)O[C@H]1CC[C@@H](c2cc(Nc3ccc4c(c3F)CN(CC3CNC3)S4(=O)=O)n[nH]2)C1 (relative stereo) [Example 105, cis-3-(3-((2-(azetidin-3-ylmethyl)-4-fluoro-1,1-dioxido-2,3-dihydrobenzo[d]isothiazol-5-yl)amino)-1H-pyrazol-5-yl)cyclopentyl isopropylcarbamate]
3.2 | 428 | CC[C@H](C)NC(=O)O[C@H]1CC[C@@H](c2cc(Nc3ccc4c(c3F)C(C)NS4(=O)=O)n[nH]2)C1 (single isomer, unassigned) [Example 54d]
48 | 1080 | CC[C@H](C)NC(=O)O[C@H]1CC[C@@H](c2cc(Nc3ccc4c(c3F)C(C)(C)NS4(=O)=O)n[nH]2)C1 (relative stereo) [Example 57, cis-3-(3-((4-fluoro-3,3-dimethyl-1,1-dioxido-2,3-dihydrobenzo[d]isothiazol-5-yl)amino)-1H-pyrazol-5-yl)cyclopentyl((S)-sec-butyl)carbamate]
6.5 | 108 | CC(C)NC(=O)O[C@H]1CC[C@@H](c2cc(Nc3ccc4c(c3)C(C)(C)NS4(=O)=O)n[nH]2)C1 (relative stereo) [Example 6, cis-3-(3-((3,3-dimethyl-1,1-dioxido-2,3-dihydrobenzo[d]isothiazol-5-yl)amino)-1H-pyrazol-5-yl)cyclopentyl isopropylcarbamate]
19 | 361 | C[C@H]1[C@H](O)CN1C(=O)O[C@H]1CC[C@@H](c2cc(Nc3ccc4c(c3F)CS(=O)(=O)N4C)n[nH]2)C1 (relative stereo) [Example 355, cis-3-(3-((4-fluoro-1-methyl-2,2-dioxido-1,3-dihydrobenzo[c]isothiazol-5-yl)amino)-1H-pyrazol-5-yl)cyclopentyl(2S,3R)-3-hydroxy-2-methylazetidine-1-carboxylate]
5.2 | 149 | CC(C)NC(=O)O[C@H]1CC[C@@H](c2cc(Nc3ccc4c(c3F)CS(=O)(=O)N4C)n[nH]2)C1 (single isomer, unassigned) [Example 255b, cis-3-(3-((4-fluoro-1-methyl-2,2-dioxido-1,3-dihydrobenzo[c]isothiazol-5-yl)amino)-1H-pyrazol-5-yl)cyclopentyl isopropylcarbamate]
8 | 157 | CCNC(=O)O[C@H]1CC[C@@H](c2cc(Nc3ccc4c(c3F)CNS4(=O)=O)n[nH]2)C1 (relative stereo) [Example 141, cis-3-(3-((4-fluoro-1,1-dioxido-2,3-dihydrobenzo[d]isothiazol-5-yl)amino)-1H-pyrazol-5-yl)cyclopentyl ethylcarbamate]
1.6 | 70 | O=C(NC1CCC1)O[C@H]1CC[C@@H](c2cc(Nc3ccc4c(c3)CS(=O)(=O)N4)n[nH]2)C1 (single isomer, unassigned) [Example 380a, cis-3-(3-((2,2-dioxido-1,3-dihydrobenzo[c]isothiazol-5-yl)amino)-1H-pyrazol-5-yl)cyclopentyl cyclobutylcarbamate]
7.4 | 471 | CN1Cc2c(ccc(Nc3cc([C@@H]4CC[C@H](OC(=O)N[C@H]5CC[C@@](C)(O)CC5)C4)[nH]n3)c2F)S1(=O)=O (relative stereo) [Example 169, cis-3-(3-((4-fluoro-2-methyl-1,1-dioxido-2,3-dihydrobenzo[d]isothiazol-5-yl)amino)-1H-pyrazol-5-yl)cyclopentyl((1s,4s)-4-hydroxy-4-methylcyclohexyl)carbamate]
3 | 18 | O=C(NC1(CO)CCC1)O[C@H]1CC[C@@H](c2cc(Nc3ccc4c(c3)CS(=O)(=O)N4)n[nH]2)C1 (relative stereo) [Example 417, cis-3-(3-((2,2-dioxido-1,3-dihydrobenzo[c]isothiazol-5-yl)amino)-1H-pyrazol-5-yl)cyclopentyl(1-(hydroxymethyl)cyclobutyl)carbamate]
5.1 | 406 | CC(C)NC(=O)O[C@H]1CC[C@@H](c2cc(Nc3ccc4c(c3F)CN(C3CCC3O)S4(=O)=O)n[nH]2)C1 (single isomer, unassigned) [Example 102, cis-3-(3-((4-fluoro-2-(2-hydroxycyclobutyl)-1,1-dioxido-2,3-dihydrobenzo[d]isothiazol-5-yl)amino)-1H-pyrazol-5-yl)cyclopentyl isopropylcarbamate]
1.2 | 88 | CN1c2ccc(Nc3cc([C@@H]4CC[C@H](OC(=O)NC5(C)CCOC5)C4)[nH]n3)c(F)c2CS1(=O)=O (single isomer, unassigned) [Example 349b, cis-3-(3-((4-fluoro-1-methyl-2,2-dioxido-1,3-dihydrobenzo[c]isothiazol-5-yl)amino)-1H-pyrazol-5-yl)cyclopentyl(3-methyltetrahydrofuran-3-yl)carbamate]
38 | 1500 | CC(C)NC(=O)O[C@H]1CC[C@@H](c2cc(Nc3ccc4c(c3Cl)CNS4(=O)=O)n[nH]2)C1 (single isomer, unassigned) [Example 38a, cis-3-(3-((4-chloro-1,1-dioxido-2,3-dihydrobenzo[d]isothiazol-5-yl)amino)-1H-pyrazol-5-yl)cyclopentyl isopropylcarbamate]
5 | 249 | CN1c2ccc(Nc3cc([C@@H]4CC[C@H](OC(=O)NC5CCC5)C4)[nH]n3)cc2CS1(=O)=O (racemic) [Example 227, cis-3-(3-((1-methyl-2,2-dioxido-1,3-dihydrobenzo[c]isothiazol-5-yl)amino)-1H-pyrazol-5-yl)cyclopentyl cyclobutylcarbamate]
7.1 | 170 | CCCNC(=O)O[C@H]1CC[C@@H](c2cc(Nc3ccc4c(c3F)C(C)NS4(=O)=O)n[nH]2)C1 (single isomer, unassigned) [Example 53d, cis-3-(3-((4-fluoro-3-methyl-1,1-dioxido-2,3-dihydrobenzo[d]isothiazol-5-yl)amino)-1H-pyrazol-5-yl)cyclopentyl propylcarbamate]
3.9 | 302 | C[C@]1(O)CC[C@@H](NC(=O)O[C@H]2CC[C@@H](c3cc(Nc4ccc5c(c4F)CNS5(=O)=O)n[nH]3)C2)CC1 (relative stereo) [Example 144, cis-3-(3-((4-fluoro-1,1-dioxido-2,3-dihydrobenzo[d]isothiazol-5-yl)amino)-1H-pyrazol-5-yl)cyclopentyl((1s,4s)-4-hydroxy-4-methylcyclohexyl)carbamate]
1.1 | 10 | CC1(NC(=O)O[C@H]2CC[C@@H](c3cc(Nc4ccc5c(c4)CS(=O)(=O)N5)n[nH]3)C2)CCOC1 (relative stereo) [Example 392, cis-3-(3-((2,2-dioxido-1,3-dihydrobenzo[c]isothiazol-5-yl)amino)-1H-pyrazol-5-yl)cyclopentyl(3-methyltetrahydrofuran-3-yl)carbamate]
